Test results as given in the NIST ThermoML archive (doi:10.1021/je049626l).
“And” between values parts separate entries of the source, which are not always exact repeats. Identical values can stand only once. Numbers after ± are expanded uncertainties.

Tests used:
[1] = Crystal; for Normal melting temperature: DTA
[2] = molar enthalpy of vaporization or sublimation; conditions: Liquid, DSC

O=C(O)COc1ccc(Cl)cc1Cl [2,4-dichlorophenoxyethanoic acid]
vapor or sublimation pressure ([1]; 346 K): 8.48e-05 ± 2e-05 kPa
vapor or sublimation pressure ([1]; 348 K): 0.000157 ± 1.9e-05 kPa
vapor or sublimation pressure ([1]; 348.5 K): 0.000127 ± 3.3e-05 kPa
vapor or sublimation pressure ([1]; 351 K): 0.00017 ± 4.6e-05 kPa
vapor or sublimation pressure ([1]; 351.5 K): 0.000127 ± 2.5e-05 kPa
vapor or sublimation pressure ([1]; 352 K): 0.000212 ± 4.5e-05 kPa
vapor or sublimation pressure ([1]; 353 K): 0.000255 ± 2.8e-05 kPa and 0.000314 ± 3.3e-05 kPa
vapor or sublimation pressure ([1]; 354.5 K): 0.000276 ± 4e-05 kPa and 0.000212 ± 3.6e-05 kPa
vapor or sublimation pressure ([1]; 357 K): 0.000472 ± 0.0001 kPa
vapor or sublimation pressure ([1]; 357.5 K): 0.000382 ± 8.6e-05 kPa
vapor or sublimation pressure ([1]; 358 K): 0.000318 ± 3.3e-05 kPa
vapor or sublimation pressure ([1]; 358.5 K): 0.000382 ± 4.8e-05 kPa
vapor or sublimation pressure ([1]; 360 K): 0.000445 ± 5.1e-05 kPa and 0.000629 ± 7.4e-05 kPa
vapor or sublimation pressure ([1]; 360.5 K): 0.000488 ± 7.2e-05 kPa
vapor or sublimation pressure ([1]; 361 K): 0.000551 ± 7e-05 kPa
vapor or sublimation pressure ([1]; 361.5 K): 0.000573 ± 5.8e-05 kPa
vapor or sublimation pressure ([1]; 362.5 K): 0.000573 ± 7.1e-05 kPa
vapor or sublimation pressure ([1]; 363 K): 0.000721 ± 8.9e-05 kPa and 0.000679 ± 8.7e-05 kPa
vapor or sublimation pressure ([1]; 364.5 K): 0.000806 ± 9.1e-05 kPa
vapor or sublimation pressure ([1]; 365.5 K): 0.000933 ± 0.00011 kPa and 0.00126 ± 0.00028 kPa
vapor or sublimation pressure ([1]; 366 K): 0.000976 ± 0.00011 kPa and 0.000848 ± 0.00012 kPa
vapor or sublimation pressure ([1]; 369 K): 0.00132 ± 0.00028 kPa and 0.0014 ± 0.00031 kPa and 0.0011 ± 0.00023 kPa
vapor or sublimation pressure ([1]; 370 K): 0.00136 ± 0.0003 kPa and 0.00204 ± 0.00048 kPa
vapor or sublimation pressure ([1]; 370.5 K): 0.00153 ± 0.00038 kPa
vapor or sublimation pressure ([1]; 371 K): 0.0017 ± 0.00038 kPa
vapor or sublimation pressure ([1]; 373 K): 0.00174 ± 0.00041 kPa
vapor or sublimation pressure ([1]; 374 K): 0.00255 ± 0.00065 kPa
vapor or sublimation pressure ([1]; 375 K): 0.00255 ± 0.00062 kPa and 0.00212 ± 0.0005 kPa
vapor or sublimation pressure ([1]; 375.5 K): 0.00229 ± 0.00056 kPa
vapor or sublimation pressure ([1]; 377 K): 0.00297 ± 0.00075 kPa
vapor or sublimation pressure ([1]; 378 K): 0.00293 ± 0.00074 kPa and 0.00481 ± 0.0013 kPa
vapor or sublimation pressure ([1]; 379 K): 0.00361 ± 0.00094 kPa
vapor or sublimation pressure ([1]; 379.5 K): 0.00344 ± 0.00088 kPa
vapor or sublimation pressure ([1]; 380.5 K): 0.00386 ± 0.001 kPa
vapor or sublimation pressure ([1]; 383.5 K): 0.00509 ± 0.0015 kPa
vapor or sublimation pressure ([1]; 385 K): 0.00594 ± 0.0018 kPa
vapor or sublimation pressure ([1]; 386 K): 0.00628 ± 0.0018 kPa
vapor or sublimation pressure ([1]; 387 K): 0.0067 ± 0.0019 kPa
Normal melting temperature [1]: 141.4 ± 0.5 °C
molar enthalpy ([2]; 479.1 K): 18.2 ± 0.956 kcal/mol
molar enthalpy ([2]; 489.5 K): 18.2 ± 1.43 kcal/mol
molar enthalpy ([2]; 503.3 K): 18.4 ± 1.2 kcal/mol

CC(Oc1ccc(Cl)cc1Cl)C(=O)O (configuration not stated) [2-(2,4-dichlorophenoxy)propanoic acid]
vapor or sublimation pressure ([1]; 343 K): 0.000157 ± 2.1e-05 kPa
vapor or sublimation pressure ([1]; 347 K): 0.000267 ± 3.5e-05 kPa and 0.000297 ± 3.7e-05 kPa
vapor or sublimation pressure ([1]; 352 K): 0.000551 ± 6e-05 kPa
vapor or sublimation pressure ([1]; 353 K): 0.000503 ± 5.9e-05 kPa
vapor or sublimation pressure ([1]; 356 K): 0.000764 ± 8.4e-05 kPa and 0.000708 ± 7.9e-05 kPa
vapor or sublimation pressure ([1]; 358 K): 0.000849 ± 8.8e-05 kPa
vapor or sublimation pressure ([1]; 359 K): 0.000912 ± 0.00014 kPa
vapor or sublimation pressure ([1]; 360 K): 0.00126 ± 0.00028 kPa
vapor or sublimation pressure ([1]; 361 K): 0.00126 ± 0.0003 kPa and 0.00153 ± 0.00036 kPa
vapor or sublimation pressure ([1]; 364 K): 0.00223 ± 0.00054 kPa
vapor or sublimation pressure ([1]; 365 K): 0.00208 ± 0.00049 kPa
vapor or sublimation pressure ([1]; 366 K): 0.00252 ± 0.00066 kPa and 0.00339 ± 0.00089 kPa
vapor or sublimation pressure ([1]; 368 K): 0.00361 ± 0.00095 kPa
vapor or sublimation pressure ([1]; 370 K): 0.00445 ± 0.0012 kPa
vapor or sublimation pressure ([1]; 371 K): 0.00481 ± 0.0013 kPa
vapor or sublimation pressure ([1]; 372 K): 0.00472 ± 0.0013 kPa
vapor or sublimation pressure ([1]; 374 K): 0.00721 ± 0.0021 kPa
vapor or sublimation pressure ([1]; 375 K): 0.00692 ± 0.002 kPa
Normal melting temperature [1]: 116.6 ± 0.5 °C
molar enthalpy ([2]; 466.7 K): 18.2 ± 1.43 kcal/mol
molar enthalpy ([2]; 474 K): 18.2 ± 1.43 kcal/mol
molar enthalpy ([2]; 477.9 K): 18.2 ± 1.2 kcal/mol

O=C(O)CCCOc1ccc(Cl)cc1Cl [4-(2,4-dichlorophenoxy)butanoic acid]
vapor or sublimation pressure ([1]; 356.5 K): 8.48e-05 ± 1.1e-05 kPa
vapor or sublimation pressure ([1]; 358 K): 0.000106 ± 1.3e-05 kPa
vapor or sublimation pressure ([1]; 359.5 K): 0.000127 ± 1.6e-05 kPa
vapor or sublimation pressure ([1]; 360 K): 0.000148 ± 1.6e-05 kPa and 0.000157 ± 1.7e-05 kPa
vapor or sublimation pressure ([1]; 361 K): 0.000148 ± 1.6e-05 kPa
vapor or sublimation pressure ([1]; 361.5 K): 0.00017 ± 2.2e-05 kPa
vapor or sublimation pressure ([1]; 362.5 K): 0.000191 ± 2.3e-05 kPa
vapor or sublimation pressure ([1]; 363 K): 0.000212 ± 2.4e-05 kPa and 0.000252 ± 2.7e-05 kPa
vapor or sublimation pressure ([1]; 363.5 K): 0.000212 ± 2.3e-05 kPa and 0.000233 ± 2.5e-05 kPa
vapor or sublimation pressure ([1]; 365.5 K): 0.000255 ± 2.9e-05 kPa
vapor or sublimation pressure ([1]; 366.5 K): 0.000297 ± 4e-05 kPa
vapor or sublimation pressure ([1]; 367 K): 0.000339 ± 5.2e-05 kPa
vapor or sublimation pressure ([1]; 367.5 K): 0.000377 ± 4.3e-05 kPa
vapor or sublimation pressure ([1]; 368 K): 0.000382 ± 5e-05 kPa
vapor or sublimation pressure ([1]; 369 K): 0.000467 ± 5.3e-05 kPa
vapor or sublimation pressure ([1]; 369.5 K): 0.000445 ± 4.6e-05 kPa
vapor or sublimation pressure ([1]; 370 K): 0.000488 ± 7.4e-05 kPa and 0.000467 ± 7.4e-05 kPa
vapor or sublimation pressure ([1]; 372 K): 0.000721 ± 8.4e-05 kPa
vapor or sublimation pressure ([1]; 372.5 K): 0.000679 ± 7.1e-05 kPa and 0.000636 ± 6.7e-05 kPa
vapor or sublimation pressure ([1]; 373 K): 0.000764 ± 8.6e-05 kPa and 0.000786 ± 8.7e-05 kPa
vapor or sublimation pressure ([1]; 374 K): 0.000806 ± 9.1e-05 kPa
vapor or sublimation pressure ([1]; 375 K): 0.000933 ± 0.0001 kPa and 0.00106 ± 0.00022 kPa
vapor or sublimation pressure ([1]; 377 K): 0.00106 ± 0.00022 kPa and 0.00123 ± 0.00026 kPa
vapor or sublimation pressure ([1]; 377.5 K): 0.00123 ± 0.0003 kPa
vapor or sublimation pressure ([1]; 378 K): 0.00138 ± 0.0003 kPa and 0.0017 ± 0.00038 kPa
vapor or sublimation pressure ([1]; 380 K): 0.00161 ± 0.00038 kPa
vapor or sublimation pressure ([1]; 381 K): 0.00229 ± 0.00056 kPa
vapor or sublimation pressure ([1]; 382 K): 0.00221 ± 0.00055 kPa
vapor or sublimation pressure ([1]; 383 K): 0.00297 ± 0.00076 kPa and 0.00283 ± 0.00072 kPa
vapor or sublimation pressure ([1]; 384 K): 0.00297 ± 0.00075 kPa
vapor or sublimation pressure ([1]; 386 K): 0.00369 ± 0.00096 kPa and 0.0044 ± 0.0012 kPa
vapor or sublimation pressure ([1]; 386.5 K): 0.00365 ± 0.001 kPa
vapor or sublimation pressure ([1]; 387 K): 0.00458 ± 0.0013 kPa
vapor or sublimation pressure ([1]; 389 K): 0.00539 ± 0.0015 kPa
vapor or sublimation pressure ([1]; 389.5 K): 0.00526 ± 0.0015 kPa
vapor or sublimation pressure ([1]; 391 K): 0.0067 ± 0.0019 kPa and 0.00666 ± 0.0019 kPa
Normal melting temperature [1]: 120.1 ± 0.5 °C
molar enthalpy ([2]; 485.7 K): 19.4 ± 2.15 kcal/mol
molar enthalpy ([2]; 495 K): 19.4 ± 2.39 kcal/mol
molar enthalpy ([2]; 501.1 K): 19.4 ± 2.15 kcal/mol

COC(=O)CCCOc1ccc(Cl)cc1Cl [butanoic acid, 4-(2,4-dichlorophenoxy)-, methyl ester]
Normal melting temperature [1]: 35.0 ± 0.5 °C
molar enthalpy ([2]; 456 K): 15.8 ± 1.43 kcal/mol
molar enthalpy ([2]; 463.4 K): 16.3 ± 1.67 kcal/mol
molar enthalpy ([2]; 469.8 K): 16.3 ± 1.43 kcal/mol

COC(=O)COc1ccc(Cl)cc1Cl [methyl 2,4-dichlorophenoxyethanoate]
Normal melting temperature [1]: 37.6 ± 0.5 °C
molar enthalpy ([2]; 415.2 K): 14.1 ± 0.717 kcal/mol
molar enthalpy ([2]; 424.4 K): 14.3 ± 0.717 kcal/mol
molar enthalpy ([2]; 430.4 K): 14.3 ± 0.717 kcal/mol
